# Experiments:
# Type in all cases: cell-based, human
# [1] = tested on: fibronectin and α-SMA; test: Western blotting of fibrosis-related proteins in TGF-β1-induced MRC-5 cells; details: for expression of fibronectin and α-SMA by concentration: MRC-5 + TGF-β1, Compound 1 at 5, 10, 20 μM, Compound 2 at 2.5, 5, 10 μM, FIG. 3; for expression levels of fibronectin and α-SMA protein: MRC-5, TGF-β1 1 ng/ml, 10 μM, FIG. 4b; for expression levels of fibronectin and α-SMA: MRC-5 induced by TGF-β1, screen of sulforaphane compounds, FIG. 2
# Procedure: Since the overexpression of extracellular matrix components such as fibronectin and α-SMA serves as an indicator of fibrotic changes in tissues, MRC-5 cells induced to undergo fibrosis by TGF-β1 were treated with each compound at different concentrations to compare the expression levels of fibronectin and α-SMA.
# (§1) Specifically, to extract fibronectin and α-SMA proteins, the cells were washed once with cold PBS and then RIPA buffer (150 mM NaCl, 0.5% Triton X-100, 50 mM Tris-HCl, pH 7.4, 25 mM NaF, 20 mM EGTA), which was added with a protease inhibitor cocktail, was added thereto to lyse the cells. Then, the proteins were quantified using a BCA protein assay kit. All protein samples were subjected to electrophoresis at 10 μg on 8% to 10% PAGE gels and then transferred to 0.2 μm PVDF membranes (EMD Millipore, MA, USA). The membranes to which the protein was transferred were blocked with 5% BSA or 5% skim milk for 1 hour, and then primary antibodies were added thereto and incubated overnight at 4° C. The following day, the membranes were washed three times with PBST, and then HRP-conjugated secondary antibodies were added and reacted at room temperature for 1 hour. The PVDF membranes prepared through such procedures were smeared with ECL (Luminata™ Crescendo, EMD Millipore) and exposed to a fluorescence reader to confirm the level of protein expression.
# The specific experimental methods are the same as in Example 2, and sulforaphane was treated at a concentration of 20 μM, Compound 1 at 5 μM, 10 μM, and 20 μM, and Compound 2 at 2.5 μM, 5 μM, and 10 μM, respectively.
# To compare the changes in fibrosis-related protein expression by treating normal MRC-5 and diseased DHLF-IPF cell lines induced with pulmonary fibrosis by TGF-β1 with SFN and the two candidate compounds, Western blotting was performed.
# The specific experimental methods are the same as in Example 2. TGF-β1 was treated at 1 ng/ml to induce fibrosis, and sulforaphane and the two compounds each were treated at a concentration of 10 μM.
# [2] = tested on: MRC-5 cells; test: Microscopic examination of cell morphology and proliferation, TGF-β1-induced MRC-5; details: MRC-5, TGF-β1-induced, microscope, FIG. 4a
# Procedure: The effects of the two candidate compounds of sulforaphane prodrugs on cytotoxicity and morphological changes in normal lung fibroblast MRC-5 cells and diseased lung fibroblast DHLF-IPF cells were examined. The diseased lung fibroblast DHLF-IPF cell line was purchased from Lonza and cultured in FGM™-2 Fibroblast Growth Medium-2 BulletKit™ at 37° C. in a 5% CO2 incubator.
# Additionally, the changes in cell morphology of two lung fibroblasts induced by TGF-β1 according to the treatments with Compound 1 and Compound 2 were examined with the naked eye through a microscope.
# [3] = tested on: DHLF-IPF cells; test: Wound healing assay, DHLF-IPF; details: TGF-β1 treatment, 24 hours, FIG. 6
# Procedure: The effects of Compound 1 and Compound 2, selected in Example 3, on cell migration (wound healing) in MRC-5 and DHLF-IPF cells were examined.
# Specifically, cells (1×10^5 cells/well) were seeded in a 60 mm dish to achieve approximately 90% confluency and cultured for 24 hours. Subsequently, a straight line was scratched on the bottom with a 200 μL pipette tip, and the detached cells were removed by washing once with Dulbecco's Phosphate-Buffered Saline (DPBS). The wound was photographed under a microscope, and treatments with TGF-β1 alone, TGF-β1+SFN, TGF-β1+GSF-016, and TGF-1+GSF-018 were applied and cultured for approximately 24 hours, after which the wound was re-photographed. The images taken at 24 hours of culture were analyzed using the Image J (Fiji package) software to measure the distance between cells, and the relative migration was expressed as a percentage (%) compared to the control group.
# [4] = tested on: TGF-β1 signaling pathway; test: Western blotting of proteins related to TGF-β1 signaling pathway in DHLF-IPF; details: for expression level of Rock protein / expression levels of MRT/SRF in the cytoplasm and nucleus: increased by TGF-β1 treatment
# Procedure: as §1
# The TGF-β1 signaling pathway can be activated through both Smad-dependent and Smad-independent pathways. The TGF-β/Smad signaling, which is a Smad-dependent pathway, is a crucial pathway that regulates the synthesis of extracellular matrix components. The Smad-independent (TGF-β/non-Smad) pathway is influenced by PI3K/AKT/mTOR and MAPK (JNK, ERK, p38), which are known to be involved in cell proliferation and growth. Based on this mechanism, the protein expression related to the TGF-β1 signaling pathway was comparatively analyzed using the same Western blotting method conducted in Example 2.
Structure (SMILES),expression of fibronectin and α-SMA by concentration [1],expression levels of fibronectin and α-SMA protein [1],expression levels of fibronectin and α-SMA [1],cell morphology [2],inhibition of cell proliferation compared to sulforaphane-treated group [2],cell migration (wound healing) [3],activity of p-AKT ([4]; TGF-β1),activity of p-ERK ([4]; TGF-β1),activity of p-JNK ([4]; TGF-β1),activity of p-p38 ([4]; TGF-β1),phosphorylation of Smad-2 ([4]; TGF-β1),phosphorylation of Smad-3 ([4]; TGF-β1),phosphorylation of Smad-7 ([4]; TGF-β1),expression level of Rock protein [4],expression levels of MRT/SRF in the cytoplasm and nucleus [4]
C=CCOC(=O)C(CSC(=S)NCCCC[S+](C)[O-])NC(C)=O (stereo not drawn) [Compound 2],decreased in a concentration-dependent manner,significantly reducing the expression levels compared to sulforaphane,significantly decreased,"thin and elongated shape, which is similar to that of the control group",inhibition of cell proliferation was more significant,significantly inhibited in a dose-dependent manner,significantly reduced the activity,reducing the activity,reducing the activity,reducing the activity,inhibited,inhibited,increased,significantly reduced,significantly reduced
CCOC(=O)C(CSC(=S)NCCCC[S+](C)[O-])NC(C)=O (stereo not drawn) [Compound 1],decreased in a concentration-dependent manner,significantly reducing the expression levels compared to sulforaphane,significantly decreased,"thin and elongated shape, which is similar to that of the control group",inhibition of cell proliferation was more significant,significantly inhibited in a dose-dependent manner,significantly reducing the activity,,,significantly reducing the activity,inhibited,,increased,significantly reduced,significantly reduced

# — US20250313528A1, “NOVEL COMPOUND AND PHARMACEUTICAL COMPOSITION FOR PREVENTING OR TREATING PULMONARY FIBROSIS COMPRISING SAME AS ACTIVE INGREDIENT” (GIL MEDICAL CENTER, priority 2022, published 2025)
